Experimental data as given in ChEMBL document CHEMBL5465560, “Selectivity Literature for EUbOPEN Chemogenomic Library” (2024).
One block for each compound: values may come before it.

Assays:
[1] = target: T1, Casein kinase I isoform alpha-like (Homo sapiens) (UniProt Q8N752); test: Selectivity interaction (KinomeScan (DiscoverX)) EUB0001049a CSNK1A1L; conditions: at 1 µM
T1 sequence (whole entry): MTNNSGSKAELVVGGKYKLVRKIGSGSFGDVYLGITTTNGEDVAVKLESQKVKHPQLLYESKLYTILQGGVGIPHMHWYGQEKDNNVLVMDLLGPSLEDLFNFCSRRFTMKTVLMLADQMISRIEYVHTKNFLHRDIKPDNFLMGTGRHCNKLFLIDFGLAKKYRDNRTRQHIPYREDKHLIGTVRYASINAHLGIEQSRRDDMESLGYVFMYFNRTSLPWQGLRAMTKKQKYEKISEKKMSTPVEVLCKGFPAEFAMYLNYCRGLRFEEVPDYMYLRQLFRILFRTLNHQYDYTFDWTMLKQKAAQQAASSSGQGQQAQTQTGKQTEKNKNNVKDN

[2] = target: Cyclin-dependent kinase 18 (Homo sapiens) (UniProt Q07002); test: Selectivity interaction (Ambit KINOMEscan and KiNATiv profiling in Jurkat cells) EUB0000090b CDK18; assay type: cell-based; conditions: at 1 µM
[3] = target: T2, Interleukin-1 receptor-associated kinase 3 (Homo sapiens) (UniProt Q9Y616); test: Selectivity interaction (ActivX KiNativ screen (kinase selectivity in THP-1 cell lysates)) EUB0000639a IRAK3; assay type: subcellular; conditions: lysate, at 0.01 µM
T2 sequence (whole entry): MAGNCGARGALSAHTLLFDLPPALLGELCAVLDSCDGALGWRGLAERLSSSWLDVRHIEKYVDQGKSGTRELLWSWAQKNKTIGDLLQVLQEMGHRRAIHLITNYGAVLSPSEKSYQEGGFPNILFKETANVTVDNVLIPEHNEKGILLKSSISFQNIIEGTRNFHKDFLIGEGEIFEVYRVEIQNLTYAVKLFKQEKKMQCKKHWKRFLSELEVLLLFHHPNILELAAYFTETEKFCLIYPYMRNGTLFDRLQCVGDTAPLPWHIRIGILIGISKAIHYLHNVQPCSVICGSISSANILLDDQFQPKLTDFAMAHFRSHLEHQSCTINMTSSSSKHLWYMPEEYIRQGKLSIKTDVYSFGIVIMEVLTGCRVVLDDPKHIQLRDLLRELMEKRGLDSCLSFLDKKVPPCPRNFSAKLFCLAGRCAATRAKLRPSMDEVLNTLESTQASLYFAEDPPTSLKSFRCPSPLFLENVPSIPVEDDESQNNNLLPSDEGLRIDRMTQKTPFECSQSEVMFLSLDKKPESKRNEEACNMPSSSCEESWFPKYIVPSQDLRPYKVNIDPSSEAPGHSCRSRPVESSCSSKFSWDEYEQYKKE

[4] = target: Atypical kinase COQ8A, mitochondrial (Homo sapiens, UniProt Q8NI60); conditions: at 10 µM
[5] = target: T3, Mitogen-activated protein kinase kinase kinase 19 (Homo sapiens) (UniProt Q56UN5); test: Selectivity interaction (KinomeScan (DiscoverX)) EUB0000092b MAP3K19; conditions: at 10 µM
T3 sequence (whole entry): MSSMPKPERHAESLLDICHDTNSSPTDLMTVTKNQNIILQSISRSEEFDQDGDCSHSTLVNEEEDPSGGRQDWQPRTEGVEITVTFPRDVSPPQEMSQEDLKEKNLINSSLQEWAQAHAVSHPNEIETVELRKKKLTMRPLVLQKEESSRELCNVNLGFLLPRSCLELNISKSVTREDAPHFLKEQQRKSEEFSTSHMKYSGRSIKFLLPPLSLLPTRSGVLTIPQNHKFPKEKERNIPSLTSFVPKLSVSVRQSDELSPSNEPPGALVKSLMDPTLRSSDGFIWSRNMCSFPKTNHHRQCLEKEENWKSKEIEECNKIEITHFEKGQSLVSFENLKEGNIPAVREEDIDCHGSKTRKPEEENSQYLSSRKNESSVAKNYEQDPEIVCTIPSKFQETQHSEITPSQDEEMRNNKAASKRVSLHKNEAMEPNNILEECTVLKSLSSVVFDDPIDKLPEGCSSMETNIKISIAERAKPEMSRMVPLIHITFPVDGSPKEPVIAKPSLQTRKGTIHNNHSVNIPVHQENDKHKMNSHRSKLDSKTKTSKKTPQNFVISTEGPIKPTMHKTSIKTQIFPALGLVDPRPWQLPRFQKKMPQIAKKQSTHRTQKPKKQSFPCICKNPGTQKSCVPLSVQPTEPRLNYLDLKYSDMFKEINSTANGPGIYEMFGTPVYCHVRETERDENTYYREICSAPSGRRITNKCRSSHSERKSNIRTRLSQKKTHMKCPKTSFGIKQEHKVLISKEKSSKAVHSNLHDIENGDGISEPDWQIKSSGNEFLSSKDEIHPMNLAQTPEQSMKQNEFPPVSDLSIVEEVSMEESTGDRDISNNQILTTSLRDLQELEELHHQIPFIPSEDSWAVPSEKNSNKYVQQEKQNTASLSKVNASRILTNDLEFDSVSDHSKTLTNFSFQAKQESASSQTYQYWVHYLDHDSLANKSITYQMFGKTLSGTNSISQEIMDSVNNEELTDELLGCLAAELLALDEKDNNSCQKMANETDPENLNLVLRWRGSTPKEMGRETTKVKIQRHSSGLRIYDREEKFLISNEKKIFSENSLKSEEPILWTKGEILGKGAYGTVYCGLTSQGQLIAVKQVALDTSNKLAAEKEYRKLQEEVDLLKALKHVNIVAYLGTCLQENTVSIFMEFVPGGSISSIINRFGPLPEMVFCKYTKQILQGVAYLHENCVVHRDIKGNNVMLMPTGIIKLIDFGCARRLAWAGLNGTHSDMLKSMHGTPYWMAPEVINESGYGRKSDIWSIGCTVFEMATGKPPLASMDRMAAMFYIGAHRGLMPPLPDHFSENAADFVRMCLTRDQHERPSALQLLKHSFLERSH

[6] = target: Cyclin-dependent kinase 13 (Homo sapiens, UniProt Q14004); test: Selectivity interaction (KinomeScan (DiscoverX)) EUB0000045b CDK13
[7] = target: Calcium/calmodulin-dependent protein kinase type II subunit gamma (Homo sapiens) (UniProt Q13555); test: Selectivity interaction (KinomeScan (DiscoverX)) EUB0000655a CAMK2G; conditions: at 10 µM
[8] = target: Calcium/calmodulin-dependent protein kinase kinase 1 (Homo sapiens) (UniProt Q8N5S9); test: Selectivity interaction (KinomeScan (DiscoverX)) EUB0000607a CAMKK1; conditions: at 10 µM
Chain of Calcium/calmodulin-dependent protein kinase kinase 1 (Homo sapiens) (Q8N5S9 whole entry, looked up): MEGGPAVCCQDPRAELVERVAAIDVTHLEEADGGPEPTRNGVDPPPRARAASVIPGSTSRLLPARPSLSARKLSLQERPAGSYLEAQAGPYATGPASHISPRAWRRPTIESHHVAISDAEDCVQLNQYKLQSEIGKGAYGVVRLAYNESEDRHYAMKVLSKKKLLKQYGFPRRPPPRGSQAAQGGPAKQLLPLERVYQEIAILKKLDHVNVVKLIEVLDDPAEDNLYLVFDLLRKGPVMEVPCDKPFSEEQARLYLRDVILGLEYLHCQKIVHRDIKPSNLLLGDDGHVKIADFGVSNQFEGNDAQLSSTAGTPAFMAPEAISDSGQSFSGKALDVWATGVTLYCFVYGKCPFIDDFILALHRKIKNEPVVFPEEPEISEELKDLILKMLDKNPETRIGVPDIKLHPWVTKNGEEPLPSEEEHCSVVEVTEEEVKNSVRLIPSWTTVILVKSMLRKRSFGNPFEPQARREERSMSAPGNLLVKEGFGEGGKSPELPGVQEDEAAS

Chain of Cyclin-dependent kinase 13 (Q14004 whole entry, looked up): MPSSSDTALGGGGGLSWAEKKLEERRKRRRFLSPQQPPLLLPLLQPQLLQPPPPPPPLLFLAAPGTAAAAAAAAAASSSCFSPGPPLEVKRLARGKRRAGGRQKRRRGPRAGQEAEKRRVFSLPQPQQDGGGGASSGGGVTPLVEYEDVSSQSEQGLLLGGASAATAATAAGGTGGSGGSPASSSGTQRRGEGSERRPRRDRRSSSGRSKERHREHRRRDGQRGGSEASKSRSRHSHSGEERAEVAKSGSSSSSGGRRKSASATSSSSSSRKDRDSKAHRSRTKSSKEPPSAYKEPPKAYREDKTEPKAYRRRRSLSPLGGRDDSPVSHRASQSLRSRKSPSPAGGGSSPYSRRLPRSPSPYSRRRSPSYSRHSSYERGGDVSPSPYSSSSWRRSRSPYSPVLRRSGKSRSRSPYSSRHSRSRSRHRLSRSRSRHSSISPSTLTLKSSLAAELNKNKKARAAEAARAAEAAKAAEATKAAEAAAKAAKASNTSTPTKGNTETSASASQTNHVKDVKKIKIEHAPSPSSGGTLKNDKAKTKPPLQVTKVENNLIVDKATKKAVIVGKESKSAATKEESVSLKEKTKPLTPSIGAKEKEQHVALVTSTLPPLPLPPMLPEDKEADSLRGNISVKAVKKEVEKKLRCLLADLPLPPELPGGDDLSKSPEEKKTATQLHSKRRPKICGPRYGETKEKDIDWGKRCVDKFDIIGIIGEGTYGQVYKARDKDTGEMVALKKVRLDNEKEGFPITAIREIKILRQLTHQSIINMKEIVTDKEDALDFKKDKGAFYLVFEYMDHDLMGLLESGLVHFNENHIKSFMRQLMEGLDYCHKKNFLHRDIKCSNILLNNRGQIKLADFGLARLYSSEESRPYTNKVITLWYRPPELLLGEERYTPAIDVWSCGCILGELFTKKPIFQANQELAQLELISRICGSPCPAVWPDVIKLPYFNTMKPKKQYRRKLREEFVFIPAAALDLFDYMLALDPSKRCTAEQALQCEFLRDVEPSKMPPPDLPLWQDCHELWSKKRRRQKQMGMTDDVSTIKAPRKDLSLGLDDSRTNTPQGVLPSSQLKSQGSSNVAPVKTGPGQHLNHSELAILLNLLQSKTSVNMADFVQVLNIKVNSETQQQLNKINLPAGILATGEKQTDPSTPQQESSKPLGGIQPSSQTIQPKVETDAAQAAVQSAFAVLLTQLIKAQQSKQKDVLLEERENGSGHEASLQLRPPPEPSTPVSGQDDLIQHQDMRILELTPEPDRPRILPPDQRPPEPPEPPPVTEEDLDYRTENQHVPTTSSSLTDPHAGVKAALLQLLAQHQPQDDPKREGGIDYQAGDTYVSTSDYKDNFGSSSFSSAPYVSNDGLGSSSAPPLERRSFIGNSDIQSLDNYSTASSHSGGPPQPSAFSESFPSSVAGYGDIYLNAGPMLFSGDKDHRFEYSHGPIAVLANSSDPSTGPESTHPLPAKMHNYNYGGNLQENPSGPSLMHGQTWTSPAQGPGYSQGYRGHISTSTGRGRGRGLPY
Chain of Atypical kinase COQ8A, mitochondrial (Q8NI60 163-647 limits assumed): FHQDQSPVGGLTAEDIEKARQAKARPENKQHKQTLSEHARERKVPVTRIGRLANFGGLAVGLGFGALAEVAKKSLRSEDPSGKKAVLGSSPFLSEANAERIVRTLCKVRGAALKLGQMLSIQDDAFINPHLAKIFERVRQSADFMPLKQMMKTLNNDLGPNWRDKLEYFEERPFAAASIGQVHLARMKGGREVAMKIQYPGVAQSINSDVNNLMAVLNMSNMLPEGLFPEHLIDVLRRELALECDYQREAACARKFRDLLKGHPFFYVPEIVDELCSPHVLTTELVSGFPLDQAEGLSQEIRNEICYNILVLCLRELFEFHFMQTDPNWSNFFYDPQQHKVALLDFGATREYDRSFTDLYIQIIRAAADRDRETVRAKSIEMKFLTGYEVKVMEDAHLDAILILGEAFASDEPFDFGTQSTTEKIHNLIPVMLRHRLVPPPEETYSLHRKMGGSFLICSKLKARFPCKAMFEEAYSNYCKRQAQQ
Chain of Calcium/calmodulin-dependent protein kinase type II subunit gamma (Homo sapiens) (Q13555 whole entry): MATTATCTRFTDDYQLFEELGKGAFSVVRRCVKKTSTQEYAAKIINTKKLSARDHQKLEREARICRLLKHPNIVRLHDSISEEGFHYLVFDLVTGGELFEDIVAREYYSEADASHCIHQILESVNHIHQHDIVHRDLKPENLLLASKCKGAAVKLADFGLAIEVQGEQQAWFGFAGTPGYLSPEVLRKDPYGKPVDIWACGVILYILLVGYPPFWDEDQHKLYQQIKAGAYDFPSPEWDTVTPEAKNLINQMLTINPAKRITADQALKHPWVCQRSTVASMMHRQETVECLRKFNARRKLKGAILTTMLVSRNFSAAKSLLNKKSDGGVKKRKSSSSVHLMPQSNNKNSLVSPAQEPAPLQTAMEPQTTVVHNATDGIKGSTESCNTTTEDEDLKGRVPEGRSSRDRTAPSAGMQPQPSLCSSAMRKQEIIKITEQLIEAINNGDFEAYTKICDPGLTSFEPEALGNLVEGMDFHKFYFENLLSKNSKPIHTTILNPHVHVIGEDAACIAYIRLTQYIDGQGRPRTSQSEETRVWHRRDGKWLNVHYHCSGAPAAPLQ
Chain of Cyclin-dependent kinase 18 (Homo sapiens) (Q07002 whole entry): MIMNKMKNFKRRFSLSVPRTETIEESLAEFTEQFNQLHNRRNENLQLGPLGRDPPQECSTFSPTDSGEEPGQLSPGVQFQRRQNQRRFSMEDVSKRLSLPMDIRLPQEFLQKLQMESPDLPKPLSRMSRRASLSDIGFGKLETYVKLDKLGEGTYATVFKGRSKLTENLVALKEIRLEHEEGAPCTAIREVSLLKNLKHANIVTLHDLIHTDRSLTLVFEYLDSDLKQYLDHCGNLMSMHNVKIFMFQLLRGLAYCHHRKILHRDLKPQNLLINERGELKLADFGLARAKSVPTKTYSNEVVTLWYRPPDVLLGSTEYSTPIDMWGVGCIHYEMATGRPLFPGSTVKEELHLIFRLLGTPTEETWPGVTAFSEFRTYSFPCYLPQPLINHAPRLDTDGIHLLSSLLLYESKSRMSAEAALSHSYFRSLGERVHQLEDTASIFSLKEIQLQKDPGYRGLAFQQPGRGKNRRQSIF

SMILES: COc1cc(Nc2nc(C)cc(-c3cnn4nc(OC)ccc34)n2)cc(C(F)(F)F)c1
% of control [1]: 100%

SMILES: CN(C)C/C=C/C(=O)Nc1ccc(C(=O)N2CCCC(Nc3ncc(Cl)c(-c4c[nH]c5ccccc45)n3)C2)cc1 (centres undefined)
% of control [2]: 59%

% of inhibition [3]: -5.3%
SMILES: CC[C@@H]1[C@H](F)C(=O)N[C@@H]1COc1nccc2cc(C(N)=O)c(OC)cc12 [ZIMLOVISERTIB]

% of control [4]: 100%
SMILES: CCN(CC)CCCCNc1ncc2cc(-c3cc(OC)cc(OC)c3)c(NC(=O)NC(C)(C)C)nc2n1

SMILES: CCC(=O)N1CCN(c2ccc(-n3c(=O)ccc4cnc5ccc(-c6cnc7ccccc7c6)cc5c43)cc2C(F)(F)F)CC1
% of control [5]: 38%

SMILES: C=CC(=O)Nc1cc(-n2c(=O)ccc3cnc4ccc(-c5ccc(NS(C)(=O)=O)cc5)cc4c32)ccc1C
% of control ([6]; at 1 µM): 100% | % of control ([6]; at 10 µM): 100%

SMILES: CN(C)CCOc1ccc(-c2nc(-c3ccncc3)c(-c3ccc4c(c3)CC/C4=N\O)[nH]2)cc1
% of control [7]: 94%

SMILES: CNC(=O)Nc1ccc(-c2nc(N3CC4CCC(C3)O4)c3cnn(C4CCC5(CC4)OCCO5)c3n2)cc1
% of control [8]: 100%
